{"source": "patent US20200017496A1", "about": "(priority 2017, published 2020)", "test_in_all_cases": "MIC of compounds alone and combined with antibacterials, broth microdilution (CLSI)", "type_in_all_cases": "cell-based", "key": {"[1]": {"system": "Providencia stuartii (PST) isolates", "conditions": "AF1 @ 4 μg/mL", "how_it_was_run": "(§1)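 Compound MIC, and antibacterial MIC at each fixed compound level, taken by visual inspection as lowest concentration stopping growth. Inoculum: log-phase bacteria, final 5·10^5 CFU/mL, cation-adjusted Mueller-Hinton broth; 16-20 h, 35° C, ambient air.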"}, "[2]": {"system": "Citrobacter freundii (CFR) isolates", "how_it_was_run": "as §1"}, "[3]": {"system": "Morganella morganii (MMO) isolates", "conditions": "AF1 @ 4 μg/mL", "how_it_was_run": "as §1"}, "[4]": {"system": "Klebsiella oxytoca (KOX) isolates", "conditions": "AF1 @ 4 μg/mL", "how_it_was_run": "as §1"}, "[5]": {"system": "Serratia marcescens (SMA) isolates", "how_it_was_run": "as §1"}, "[6]": {"system": "Klebsiella pneumoniae (KPN) isolates", "conditions": "AF1 @ 4 μg/mL", "how_it_was_run": "as §1"}, "[7]": {"system": "Citrobacter koseri (CKR) isolates", "conditions": "AF1 @ 4 μg/mL", "how_it_was_run": "as §1"}}, "data": [{"smiles": "COCC1=C(C(=O)O)N2C(=O)[C@@H](NC(=O)/C(=N\\OC)c3csc(N)n3)[C@H]2SC1", "note": "[POD, Cefpodoxime]", "values": [{"measurement": "MIC ATB in combination", "setting": "[1]; PST UFR94", "value": 0.5, "unit": "µg/mL"}, {"measurement": "MIC ATB in combination", "setting": "[1]; PST UFR95", "value": 2, "unit": "µg/mL"}, {"measurement": "MIC ATB in combination", "setting": "[1]; PST UFR235", "value": 2, "unit": "µg/mL"}, {"measurement": "MIC ATB in combination", "setting": "[2]; CFR UFR10, AF1 @ 4 μg/mL", "value": "<=0.25 μg/mL"}, {"measurement": "MIC ATB in combination", "setting": "[2]; CFR UFR11, AF1 @ 4 μg/mL", "value": 16, "unit": "µg/mL"}, {"measurement": "MIC ATB in combination", "setting": "[2]; CFR UFR83, AF1 @ 4 μg/mL", "value": ">128", "unit": "µg/mL"}, {"measurement": "MIC ATB in combination", "setting": "[2]; CFR UFR146, AF1 @ 4 μg/mL", "value": 1, "unit": "µg/mL"}, {"measurement": "MIC ATB in combination", "setting": "[2]; CFR UFR248, AF1 @ 4 μg/mL", "value": 1, "unit": "µg/mL"}, {"measurement": "MIC ATB in combination", "setting": "[2]; CFR UFR249, AF1 @ 4 μg/mL", "value": "<=0.25 μg/mL"}, {"measurement": "MIC ATB in combination", "setting": "[2]; CFR UFR250, AF1 @ 4 μg/mL", "value": 0.5, "unit": "µg/mL"}, {"measurement": "MIC ATB in combination", "setting": "[2]; strain CFR UFR253, antibacterial combined with AF1 @ 4 μg/mL", "value": "<=0.25 μg/mL"}, {"measurement": "MIC ATB in combination", "setting": "[2]; strain CFR UFR254, antibacterial combined with AF1 @ 4 μg/mL", "value": "<=0.25 μg/mL"}, {"measurement": "MIC ATB in combination", "setting": "[3]; MMO 200321", "value": 2, "unit": "µg/mL"}, {"measurement": "MIC ATB in combination", "setting": "[3]; MMO UFR144", "value": 2, "unit": "µg/mL"}, {"measurement": "MIC ATB in combination", "setting": "[3]; MMO UFR240", "value": "<=0.25 μg/mL"}, {"measurement": "MIC ATB in combination", "setting": "[3]; MMO UFR241", "value": 2, "unit": "µg/mL"}, {"measurement": "MIC ATB in combination", "setting": "[3]; MMO UFR242", "value": 4, "unit": "µg/mL"}, {"measurement": "MIC ATB in combination", "setting": "[3]; MMO UFR243", "value": 4, "unit": "µg/mL"}, {"measurement": "MIC ATB in combination", "setting": "[3]; MMO UFR244", "value": "<=0.25 μg/mL"}, {"measurement": "MIC ATB in combination", "setting": "[3]; MMO UFR245", "value": 2, "unit": "µg/mL"}, {"measurement": "MIC ATB in combination", "setting": "[3]; MMO UFR246", "value": 4, "unit": "µg/mL"}, {"measurement": "MIC ATB in combination", "setting": "[3]; MMO UFR247", "value": 1, "unit": "µg/mL"}, {"measurement": "MIC ATB in combination", "setting": "[4]; KOX UFR21", "value": 1, "unit": "µg/mL"}, {"measurement": "MIC ATB in combination", "setting": "[4]; KOX UFR173", "value": 0.5, "unit": "µg/mL"}, {"measurement": "MIC ATB in combination", "setting": "[4]; KOX UFR223", "value": "<=0.25 μg/mL"}, {"measurement": "MIC ATB in combination", "setting": "[4]; KOX UFR224", "value": "<=0.25 μg/mL"}, {"measurement": "MIC ATB in combination", "setting": "[5]; SMA UFR30, AF1 @ 4 μg/mL", "value": 0.5, "unit": "µg/mL"}, {"measurement": "MIC ATB in combination", "setting": "[5]; SMA UFR134, AF1 @ 4 μg/mL", "value": 2, "unit": "µg/mL"}, {"measurement": "MIC ATB in combination", "setting": "[5]; SMA UFR135, AF1 @ 4 μg/mL", "value": 4, "unit": "µg/mL"}, {"measurement": "MIC ATB in combination", "setting": "[5]; SMA UFR136, AF1 @ 4 μg/mL", "value": 8, "unit": "µg/mL"}, {"measurement": "MIC ATB in combination", "setting": "[5]; SMA UFR137, AF1 @ 4 μg/mL", "value": 0.5, "unit": "µg/mL"}, {"measurement": "MIC ATB in combination", "setting": "[5]; SMA UFR138, AF1 @ 4 μg/mL", "value": 0.5, "unit": "µg/mL"}, {"measurement": "MIC ATB in combination", "setting": "[5]; SMA UFR139, AF1 @ 4 μg/mL", "value": 2, "unit": "µg/mL"}, {"measurement": "MIC ATB in combination", "setting": "[5]; SMA UFR141, AF1 @ 4 μg/mL", "value": 2, "unit": "µg/mL"}, {"measurement": "MIC ATB in combination", "setting": "[5]; SMA UFR142, AF1 @ 4 μg/mL", "value": 1, "unit": "µg/mL"}, {"measurement": "MIC ATB in combination", "setting": "[5]; SMA UFR143, AF1 @ 4 μg/mL", "value": 1, "unit": "µg/mL"}, {"measurement": "MIC ATB in combination", "setting": "[5]; SMA UFR239, AF1 @ 4 μg/mL", "value": 2, "unit": "µg/mL"}, {"measurement": "MIC ATB in combination", "setting": "[5]; strain SMA UFR238, antibacterial combined with AF1 @ 4 μg/mL", "value": 2, "unit": "µg/mL"}, {"measurement": "MIC ATB in combination", "setting": "[6]; KPN 6299", "value": "<=0.25 μg/mL"}, {"measurement": "MIC ATB in combination", "setting": "[6]; KPN 110376", "value": "<=0.25 μg/mL"}, {"measurement": "MIC ATB in combination", "setting": "[6]; KPN 131119", "value": "<=0.25 μg/mL"}, {"measurement": "MIC ATB in combination", "setting": "[6]; KPN 140513", "value": 4, "unit": "µg/mL"}, {"measurement": "MIC ATB in combination", "setting": "[6]; KPN 160143", "value": "<=0.25 μg/mL"}, {"measurement": "MIC ATB in combination", "setting": "[6]; KPN 190128", "value": 0.5, "unit": "µg/mL"}, {"measurement": "MIC ATB in combination", "setting": "[6]; KPN 190270", "value": 0.5, "unit": "µg/mL"}, {"measurement": "MIC ATB in combination", "setting": "[6]; KPN 190425", "value": "<=0.25 μg/mL"}, {"measurement": "MIC ATB in combination", "setting": "[6]; KPN 190551", "value": "<=0.25 μg/mL"}, {"measurement": "MIC ATB in combination", "setting": "[6]; KPN 200047", "value": "<=0.25 μg/mL"}, {"measurement": "MIC ATB in combination", "setting": "[6]; KPN 200327", "value": "<=0.25 μg/mL"}, {"measurement": "MIC ATB in combination", "setting": "[6]; KPN 260251", "value": "<=0.25 μg/mL"}, {"measurement": "MIC ATB in combination", "setting": "[6]; KPN 260252", "value": 4, "unit": "µg/mL"}, {"measurement": "MIC ATB in combination", "setting": "[6]; KPN 260376", "value": "<=0.25 μg/mL"}, {"measurement": "MIC ATB in combination", "setting": "[6]; KPN 270077", "value": 0.5, "unit": "µg/mL"}, {"measurement": "MIC ATB in combination", "setting": "[6]; KPN 700603", "value": 0.5, "unit": "µg/mL"}, {"measurement": "MIC ATB in combination", "setting": "[6]; KPN ARA", "value": "<=0.25 μg/mL"}, {"measurement": "MIC ATB in combination", "setting": "[6]; KPN BAA-1898", "value": 0.5, "unit": "µg/mL"}, {"measurement": "MIC ATB in combination", "setting": "[6]; KPN LIB", "value": "<=0.25 μg/mL"}, {"measurement": "MIC ATB in combination", "setting": "[6]; KPN UFR22_O", "value": "<=0.25 μg/mL"}, {"measurement": "MIC ATB in combination", "setting": "[6]; KPN UFR23", "value": "<=0.25 μg/mL"}, {"measurement": "MIC ATB in combination", "setting": "[6]; KPN UFR24", "value": 1, "unit": "µg/mL"}, {"measurement": "MIC ATB in combination", "setting": "[6]; KPN UFR25", "value": "<=0.25 μg/mL"}, {"measurement": "MIC ATB in combination", "setting": "[6]; KPN UFR27", "value": 4, "unit": "µg/mL"}, {"measurement": "MIC ATB in combination", "setting": "[6]; KPN UFR28", "value": "<=0.25 μg/mL"}, {"measurement": "MIC ATB in combination", "setting": "[6]; KPN UFR65", "value": 0.5, "unit": "µg/mL"}, {"measurement": "MIC ATB in combination", "setting": "[6]; KPN UFR66", "value": 2, "unit": "µg/mL"}, {"measurement": "MIC ATB in combination", "setting": "[6]; KPN UFR67", "value": 4, "unit": "µg/mL"}, {"measurement": "MIC ATB in combination", "setting": "[6]; KPN UFR68", "value": 1, "unit": "µg/mL"}, {"measurement": "MIC ATB in combination", "setting": "[6]; KPN UFR76", "value": ">128", "unit": "µg/mL"}, {"measurement": "MIC ATB in combination", "setting": "[6]; KPN UFR77", "value": 4, "unit": "µg/mL"}, {"measurement": "MIC ATB in combination", "setting": "[6]; KPN UFR78", "value": 128, "unit": "µg/mL"}, {"measurement": "MIC ATB in combination", "setting": "[6]; KPN UFR79", "value": 4, "unit": "µg/mL"}, {"measurement": "MIC ATB in combination", "setting": "[6]; KPN UFR80", "value": 0.5, "unit": "µg/mL"}, {"measurement": "MIC ATB in combination", "setting": "[6]; KPN UFR81", "value": 4, "unit": "µg/mL"}, {"measurement": "MIC ATB in combination", "setting": "[6]; KPN UFR215", "value": 0.5, "unit": "µg/mL"}, {"measurement": "MIC ATB in combination", "setting": "[6]; KPN UFR216", "value": "<=0.25 μg/mL"}, {"measurement": "MIC ATB in combination", "setting": "[6]; KPN UFR217", "value": "<=0.25 μg/mL"}, {"measurement": "MIC ATB in combination", "setting": "[6]; KPN UFR219", "value": "<=0.25 μg/mL"}, {"measurement": "MIC ATB in combination", "setting": "[6]; KPN UFR220", "value": 4, "unit": "µg/mL"}, {"measurement": "MIC ATB in combination", "setting": "[6]; KPN UFR221", "value": 1, "unit": "µg/mL"}, {"measurement": "MIC ATB in combination", "setting": "[6]; KPN UFR222", "value": 8, "unit": "µg/mL"}, {"measurement": "MIC ATB in combination", "setting": "[6]; KPN UFR227O", "value": 4, "unit": "µg/mL"}, {"measurement": "MIC ATB in combination", "setting": "[7]; CKO ROU", "value": 2, "unit": "µg/mL"}, {"measurement": "MIC ATB in combination", "setting": "[7]; CKO UFR149", "value": 8, "unit": "µg/mL"}, {"measurement": "MIC ATB in combination", "setting": "[7]; CKO UFR150", "value": 8, "unit": "µg/mL"}]}]}
